Laboratory results from US7524981B2, “Phospholipid derivatives and process for the production there” (NOF Corporation, priority 2003, dated 2009).

Test: Salt-tolerant effect: clouding point in aqueous sodium sulfate
Assay type: physicochemical
Settings: 1 mass % solution in 5 mass % aqueous solution of sodium sulfate
Description: Clouding point of a 1 mass % solution of tetradecaglycerol succinyl distearoylphosphatidylethanolamine obtained in Example 5, which was dissolved in 5 mass % aqueous solution of sodium sulfate, was measured. As a result of the measurement, clouding point could not be detected even when the temperature was raised to 80° C.
Clouding point was measured for monomethylpolyoxyethylenecarbamyl (molecular weight: 2000) distearoylphosphatidylethanolamine obtained in Comparative Synthesis Example 1 in the same manner as used in Example 9.

| Substance | Clouding point |
| --- | --- |
| Monomethylpolyoxyethylenecarbamyl (Molecular Weight: 2000) Distearoylphosphatidylethanolamine | 50.0 °C |
| Tetradecaglycerol Succinyl Distearoylphosphatidylethanolamine [DSPE-PG(40)] | > 80 °C |
